From patent US9302999B2, “Substituted triazoles as herbicides” (E. I. DU PONT DE NEMOURS AND COMPANY, priority 2012, dated 2016)

Legend:
Format in all cases: in vivo
[1] = system: crabgrass, large (large crabgrass, Digitaria sanguinalis); test: Test A pre-/postemergence: crabgrass, large
Procedure, shortened: (§1)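 Plants in loam–sand blend were treated with test chemicals in non-phytotoxic solvent with surfactant, either as preemergence directed soil spray or postemergence at 2–10 cm, one- to two-leaf stage. After about ten days in greenhouse, injury was rated visually against untreated controls on a 0–100 scale (100 = complete control).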

[2] = system: foxtail, giant (giant foxtail, Setaria faberii); test: Test A pre-/postemergence: foxtail, giant
Procedure, shortened: as §1

[3] = system: morningglory (Ipomoea spp.); test: Test A pre-/postemergence: morningglory; details: Preemergence
Procedure, shortened: as §1

[4] = system: velvetleaf (Abutilon theophrasti); test: Test A pre-/postemergence: velvetleaf
Procedure, shortened: as §1

[5] = system: blackgrass (Alopecurus myosuroides); test: Test C pre-/postemergence: blackgrass
Procedure, shortened: (§2)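 Preemergence on seeds in loam/sand, postemergence on 2–18 cm (1–4-leaf) plants in peat-based medium; compounds in non-phytotoxic solvent with surfactant. After 13–15 days in greenhouse, visual rating versus controls, 0 (no effect) to 100 (complete control).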

[6] = system: galium (catchweed bedstraw, Galium aparine); test: Test C pre-/postemergence: galium
Procedure, shortened: as §2

[7] = system: johnsongrass (Sorghum halepense); test: Test C pre-/postemergence: johnsongrass
Procedure, shortened: as §2

[8] = system: morningglory (Ipomoea coccinea); test: Test C pre-/postemergence: morningglory
Procedure, shortened: as §2

[9] = system: Oilseed Rape; test: Test C postemergence: oilseed rape; details: 62 g ai/ha, scale 0 to 100 (0 no effect, 100 complete control)
Procedure, shortened: (§3)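 Visual 0–100 injury score vs untreated controls (0 none, 100 complete control), taken 13–15 d after treatment. Postemergence spray on potted plants, 2–18 cm, 1–4 leaves; greenhouse.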

[10] = system: Waterhemp; test: Test C postemergence: waterhemp; details: 62 g ai/ha, scale 0 to 100 (0 no effect, 100 complete control)
Procedure, shortened: as §3

[11] = Postemergence, 125 g ai/ha, 0 to 100 scale, 0 is no effect, 100 is complete control
[12] = Postemergence, 500 g ai/ha, 0 to 100 scale, 0 is no effect, 100 is complete control
[13] = Preemergence, 125 g ai/ha, 0 to 100 scale where 0 is no effect and 100 is complete control
[14] = Preemergence, 500 g ai/ha, 0 to 100 scale (0 no effect, 100 complete control)
[15] = 125 g ai/ha, 0 to 100 scale where 0 is no effect and 100 is complete control
[16] = 500 g ai/ha, 0 to 100 scale (0 no effect, 100 complete control)
[17] = Postemergence, 31 g ai/ha, scale 0 to 100 (0 no effect, 100 complete control)
[18] = Postemergence, 62 g ai/ha, scale 0 to 100 (0 no effect, 100 complete control)
[19] = Postemergence, 125 g ai/ha, scale 0 to 100, 0 no effect, 100 complete control
[20] = Postemergence, 250 g ai/ha, scale 0 to 100
[21] = Preemergence, 31 g ai/ha, scale 0 (no effect) to 100 (complete control)
[22] = Preemergence, 62 g ai/ha, scale of 0 to 100, 0 is no effect, 100 is complete control
[23] = Preemergence, 125 g ai/ha, scale 0 to 100, 0 no effect, 100 complete control
[24] = Preemergence, 250 g ai/ha, scale 0 to 100, 0 no effect, 100 complete control
[25] = Postemergence, 250 g ai/ha, scale 0 to 100 (0 no effect, 100 complete control)

Which “Plant response rating, Crabgrass, Large” value [1, 11] does the source give for CCc1nn(-c2ccc(C(F)(F)F)cc2)nc1Oc1ccnc(C(F)(F)F)c1 [Compound 169] here?
The value was 90.

And the “Crabgrass, Large plant response rating” value [1, 12]?
Its value is 90.

What about the “Plant response rating, Crabgrass, Large” value [1, 13] of the same compound?
Its value is 100.

What about the “Plant response rating, Crabgrass, Large” value [1, 14] of the same compound?
The value was 100.

What about the “Plant response rating, Foxtail, Giant” value [2, 11] of the same compound?
The value was 80.

What about the “Foxtail, Giant plant response rating” value [2, 12] of the same compound?
Its value is 90.

And the “Plant response rating, Foxtail, Giant” value [2, 13]?
The value was 100.

And the “Plant response rating, Foxtail, Giant” value [2, 14]?
The value was 100.

And the “Plant response rating, Morningglory” value [3, 15]?
Its value is 20.

And the “Plant response rating, Morningglory” value [3, 16]?
The value was 40.

And the “Plant response rating, Velvetleaf” value [4, 11]?
The value was 100.

What about the “Velvetleaf plant response rating” value [4, 12] of the same compound?
The value was 100.

And the “Plant response rating, Velvetleaf” value [4, 13]?
The value was 50.

And the “Plant response rating, Velvetleaf” value [4, 14]?
Its value is 90.

What about the “Plant response rating, Blackgrass” value [5, 17] of the same compound?
The value was 5.

And the “Plant response rating, Blackgrass” value [5, 18]?
The value was 15.

And the “Plant response rating, Blackgrass” value [5, 19]?
The value was 35.

What about the “Plant response rating, Blackgrass” value [5, 20] of the same compound?
Its value is 50.

And the “Plant response rating, Blackgrass” value [5, 21]?
Its value is 80.

What about the “Plant response rating, Blackgrass” value [5, 22] of the same compound?
Its value is 90.

And the “Plant response rating, Blackgrass” value [5, 23]?
The value was 95.

What about the “Plant response rating, Blackgrass” value [5, 24] of the same compound?
The value was 95.

And the “Plant response rating, Galium” value [6, 17]?
The value was 80.

And the “Plant response rating, Galium” value [6, 18]?
Its value is 90.

And the “Plant response rating, Galium” value [6, 19]?
Its value is 90.

What about the “Plant response rating, Galium” value [6, 25] of the same compound?
The value was 95.

And the “Plant response rating, Galium” value [6, 21]?
Its value is 100.

And the “Plant response rating, Galium” value [6, 22]?
The value was 100.

What about the “Plant response rating, Galium” value [6, 23] of the same compound?
The value was 100.

And the “Plant response rating, Galium” value [6, 24]?
The value was 100.

What about the “Plant response rating, Johnsongrass” value [7, 17] of the same compound?
The value was 15.

What about the “Plant response rating, Johnsongrass” value [7, 18] of the same compound?
The value was 30.

And the “Plant response rating, Johnsongrass” value [7, 19]?
The value was 35.

And the “Plant response rating, Johnsongrass” value [7, 25]?
The value was 50.

And the “Plant response rating, Johnsongrass” value [7, 21]?
Its value is 20.

And the “Plant response rating, Johnsongrass” value [7, 22]?
Its value is 75.

And the “Plant response rating, Johnsongrass” value [7, 23]?
The value was 95.

And the “Plant response rating, Johnsongrass” value [7, 24]?
Its value is 98.

What about the “Plant response rating, Morningglory” value [8, 17] of the same compound?
The value was 98.

And the “Plant response rating, Morningglory” value [8, 19]?
Its value is 100.

And the “Plant response rating, Morningglory” value [8, 25]?
Its value is 100.

And the “Plant response rating, Morningglory” value [8, 21]?
Its value is 25.

And the “Plant response rating, Morningglory” value [8, 22]?
The value was 55.

What about the “Plant response rating, Morningglory” value [8, 23] of the same compound?
Its value is 80.

What about the “Plant response rating, Morningglory” value [8, 24] of the same compound?
Its value is 85.

What about the “Plant response rating, Oilseed Rape” value [9] of the same compound?
Its value is 40.

What about the “Plant response rating, Waterhemp” value [10] of the same compound?
Its value is 80.

Which “Plant response rating, Crabgrass, Large” value [1, 11] does the source give for CCCc1nn(-c2ccc(F)cc2)nc1Oc1ccnc(C(F)(F)F)c1 [Compound 168] here?
The value was 90.

What about the “Crabgrass, Large plant response rating” value [1, 12] of the same compound?
Its value is 90.

What about the “Plant response rating, Crabgrass, Large” value [1, 13] of the same compound?
The value was 100.

What about the “Plant response rating, Crabgrass, Large” value [1, 14] of the same compound?
Its value is 100.

What about the “Plant response rating, Foxtail, Giant” value [2, 11] of the same compound?
Its value is 90.

What about the “Foxtail, Giant plant response rating” value [2, 12] of the same compound?
Its value is 90.

And the “Plant response rating, Foxtail, Giant” value [2, 13]?
Its value is 100.

And the “Plant response rating, Foxtail, Giant” value [2, 14]?
Its value is 100.

And the “Plant response rating, Morningglory” value [3, 15]?
The value was 20.

And the “Plant response rating, Morningglory” value [3, 16]?
The value was 50.

What about the “Plant response rating, Velvetleaf” value [4, 11] of the same compound?
Its value is 100.

And the “Velvetleaf plant response rating” value [4, 12]?
Its value is 100.

And the “Plant response rating, Velvetleaf” value [4, 13]?
Its value is 30.

What about the “Plant response rating, Velvetleaf” value [4, 14] of the same compound?
The value was 90.

What about the “Plant response rating, Blackgrass” value [5, 17] of the same compound?
The value was 45.

And the “Plant response rating, Blackgrass” value [5, 18]?
The value was 45.

And the “Plant response rating, Blackgrass” value [5, 19]?
The value was 80.

And the “Plant response rating, Blackgrass” value [5, 20]?
The value was 80.

And the “Plant response rating, Blackgrass” value [5, 21]?
The value was 90.

And the “Plant response rating, Blackgrass” value [5, 22]?
The value was 90.

And the “Plant response rating, Blackgrass” value [5, 23]?
The value was 95.

And the “Plant response rating, Blackgrass” value [5, 24]?
Its value is 98.

And the “Plant response rating, Galium” value [6, 17]?
Its value is 90.

And the “Plant response rating, Galium” value [6, 18]?
Its value is 90.

What about the “Plant response rating, Galium” value [6, 19] of the same compound?
Its value is 90.

What about the “Plant response rating, Galium” value [6, 25] of the same compound?
Its value is 95.

What about the “Plant response rating, Galium” value [6, 21] of the same compound?
The value was 85.

What about the “Plant response rating, Galium” value [6, 22] of the same compound?
The value was 100.

What about the “Plant response rating, Galium” value [6, 23] of the same compound?
The value was 100.

And the “Plant response rating, Galium” value [6, 24]?
Its value is 100.

And the “Plant response rating, Johnsongrass” value [7, 17]?
The value was 30.

And the “Plant response rating, Johnsongrass” value [7, 18]?
The value was 55.

What about the “Plant response rating, Johnsongrass” value [7, 19] of the same compound?
Its value is 70.

What about the “Plant response rating, Johnsongrass” value [7, 25] of the same compound?
The value was 75.

What about the “Plant response rating, Johnsongrass” value [7, 21] of the same compound?
Its value is 75.

And the “Plant response rating, Johnsongrass” value [7, 22]?
The value was 98.

What about the “Plant response rating, Johnsongrass” value [7, 23] of the same compound?
The value was 100.

What about the “Plant response rating, Johnsongrass” value [7, 24] of the same compound?
The value was 100.

And the “Plant response rating, Morningglory” value [8, 17]?
Its value is 50.

And the “Plant response rating, Morningglory” value [8, 18]?
The value was 80.

And the “Plant response rating, Morningglory” value [8, 19]?
The value was 90.

And the “Plant response rating, Morningglory” value [8, 25]?
The value was 90.

And the “Plant response rating, Morningglory” value [8, 21]?
The value was 45.

What about the “Plant response rating, Morningglory” value [8, 22] of the same compound?
The value was 55.

And the “Plant response rating, Morningglory” value [8, 23]?
The value was 55.

And the “Plant response rating, Morningglory” value [8, 24]?
Its value is 80.

And the “Plant response rating, Oilseed Rape” value [9]?
Its value is 70.

What about the “Plant response rating, Waterhemp” value [10] of the same compound?
The value was 90.
